The text below walks through data of patent publication US20220241314A1, “COMPOSITIONS AND METHODS FOR TREATMENT OF HEPATITIS B VIRUS INFECTION” (priority 2019, published 2022).

{ppp} = triphosphate

Data set [1] deals with IRF3. Description: Immunofluorescence analysis of IRF3 translocation. In kind it is cell-based, human. The conditions noted are these: HepG2-hNTCP cells, 24 hours; F7 10 μM; poly-U/UC PAMP or X-RNA 200 ng/ml in liposome.
Data set [2] concerns IRF3. Description: Immunoblot of IRF3 phosphorylation and IFIT1 expression. The data set is classed as cell-based, human. The following applies: HepG2-hNTCP and dHepaRG cells, 24 and 48 hours, dose-dependent.
Data set [3] relates to HBV. Put plainly: HBV replication infection/treatment time course over 20 dpi. In kind it is cell-based, HBV (Genotype D). The conditions noted are these: HepG2-hNTCP; for production of pgRNA (RT-qPCR): 6 dpi to 20 dpi; for capsid-associated intracellular HBV DNA (RC, DL, SS DNA), Southern blot: 6 to 20 dpi; for production of cccDNA over time course: F7 10 μM or poly-U/UC PAMP 100 ng/ml from 24 hours after infection, within 2 dpi; for extracellular HBV DNA (qPCR) / secreted HBsAg in culture supernatant (ELISA): infection/treatment time course. As for the experimental part: FIGS. 9A-9E illustrate kinetics of HBV replication in parallel cultures of cells during treatment with F7 or poly-U/UC PAMP. (9A) HepG2-hNTCP cells were infected with HBV at a moi of 1000 Geq/cell. After 24 hours the cells were treated with F7 (10 μM) (upper), or 100 ng/ml X RNA or 100 ng/ml poly-U/UC PAMP (lower). Cells were harvested at each time point, Hirt supernatants prepared and subjected to Southern blot analysis. (B) HBV pgRNA was analyzed by RT-qPCR. Values from 20 Dpi of ‘HBV only’ was set to 100% for RT-PCR analysis. Data was presented as mean±standard deviations (SD), ***P<0.001, ****P 21 0.0001; and ns=non-significant (9C) HBV intracellular capsid-associated DNA from cells treated with 10 uM F7 (upper) or 100 ng/ml XRNA or poly-U/UC PAMP (lower) was analyzed by Southern blot. (9D) Secreted HBsAg from HBV-infected cells treated with F7 (upper) or poly-U/UC (lower) was detected by ELISA. (9E) Extracellular HBV-DNA was measured by qPCR from cells treated with 10 uM (left) or 100 ng/ml XRNA or poly-U/UC PAMP (right). Data are presented as mean±standard deviation (SD) from three independent experiments. ***P 0.0002.
To further determine how the activation of IRF3 impacts the HBV replication cycle, the expression of viral DNA, viral RNA, extracellular HBV DNAs and secreted HBsAg were analyzed over an infection/treatment time course. […] The level of capsid-associated intracellular HBV DNA intermediates of reverse transcription produced over the HBV infection/treatment time course were also measured.
HBV infection HBV (Genotype D) was purified from the supernatant of HepAD38 cells by PEG concentration and subsequent sucrose gradient, as described previously (Ko, C., et al. (2014). DDX3 DEAD-Box RNA Helicase Is a Host Factor That Restricts Hepatitis B Virus Replication at the Transcriptional Level. Journal of Virology 88, 13689-13698; Watashi, K., et al. (2013), supra). For HBV infection cells were seeded into collagen-coated plates. One day later, the cells were infected with HBV in DMEM containing 4% polyethylene glycol 8000 (PEG-8000). The multiplicities of infection (expressed as virus genome equivalent/cell) are indicated in each Figure Legend. The inocula were removed 24 hours later, and the infected cultures were maintained in complete DMEM containing 2.5% DMSO until harvesting, as described previously (Ni, Y., et al. (2014). Hepatitis B and D viruses exploit sodium taurocholate co-transporting polypeptide for species-specific entry into hepatocytes. Gastroenterology 146, 1070-1083).
Reverse transcription quantitative real time qPCR (RT-qPCR) analysis: Total cellular RNAs were extracted from cells using TRIZOL reagent and the manufacturers protocol (Invitrogen). cDNA was synthesized from the purified RNA by both random and oligo (dT) priming using iScript select cDNA synthesis kit (Biorad, Inc.). For HBV cccDNA expression analysis, total DNA was extracted using the DNeasy kit (QIAGEN). For selective cccDNA PCR analysis, isolated DNAs were treated with 10 Units of T5 exonuclease (NEB) for 30 min in 10 μl of reaction volume in 37° C., followed by heat-inactivation at 95° C. for 5 min and 4-fold dilution with Nuclease-free water. For extra-cellular HBV DNA quantification, an external HBV plasmid standard was used to program the PCR (Ko, C., et al. (2018), supra). Relative mRNA levels of all target genes were quantified by RT-qPCR performed using the ΔΔCT method, and expression levels were normalized to house-keeping genes. Real-time PCR assays were carried out using the SYBR green method (Applied Biosystems) performed using an Applied Biosystems 7300 thermocycler. […]

Data set [4] relates to HBV cccDNA. Put plainly: Subcellular compartment analysis of PF-RC DNA and cccDNA (synchronous infection, cell fractionation). In kind it is cell-based, HBV (Genotype D). The conditions noted are these: HepG2-hNTCP, treated from time 0 through 3 dpi; F7 10 μM, poly-U/UC PAMP 100 ng/ml. As to the method:
FIG. 4A-4D illustrate subcellular compartment analysis of antiviral activity. (4A) and (4C) Scheme of HBV infection with F7 treatment (4A) or poly-U/UC PAMP treatment (4C). HepG2-hNTCP cultures were inoculated with HBV at moi 1000 Geq/cell for 24 hr. On treatment day 0 the cultures received F7 (10 μM) or poly-U/UC PAMP (100 ng/ml). Cells were harvested for production of Hirt extracts at each time point shown through three days. Parallel cultures were harvested for Western blot analysis to monitor Lamin B1 and Calnexin as markers of […] and cytosol respectively. (4B) and (4D) DNA was analyzed by Southern blot using HBV-specific DNA probe. Viral protein-free DNAs (protein-free Relaxed Circular DNA [PF-RC DNA]and cccDNA) are indicated. The positions of mass markers are indicated. Lower panels show Western blot of Lamin B1 and Calnexin abundance.
Cells were inoculated with HBV for 6 hours at 4° C., then the inoculum was removed, cells rinsed and placed in 37° C. media to initiate synchronous infection (time 0), at which time the cells were treated with F7 (FIG. 4A), or poly-U/UC PAMP (FIG. 4C) through 3 dpi. Whole cell (W), nuclear (N), and cytoplasmic (C) extracts were harvested over the time course, at 3 and 6 hours post-infection, and daily over 1-3 dpi, and PF-RC and cccDNA abundance were analyzed by Southern blot. […] For poly-U/UC PAMP treatment, cells were also harvested over a similar time course (see FIG. 4C).
HBV entry assay and cell fractionation: Cells were inoculated with HBV in presence of 4% PEG for 6 hours at 4°C. To assess HBV entry, inoculum was removed by washing with PBS that included proteinase K and cells were shifted to 37° C. post-attachment. After incubation and treatment, the cells were lysed in a hypotonic buffer (100 MM HEPES, 15 mM MgCl2, 100 mM KCL and Nonidet P-40), and homogenized with a dounce homogenizer. The cytoplasmic fraction was separated from nuclei pellet by centrifugation (6000×g for 5 min at 4° C.). Nuclei pellet was resuspended in extraction buffer (20 mM HEPES, 15 mM MgCl2, 420 mM NaCl, 0.2 mM EDTA and 25% (v/v) Glycerol including DTI and protease inhibitor cocktail). Each cellular fraction was mixed with 1% SDS (v/v) and protein-free DNA was extracted using the Hirt extraction method.

`O=C(Nc1ccc2nc(NC(=O)c3ccc4ccccc4c3)sc2c1)c1ccccc1` [F7, N-(6-benzamido-1,3-benzothiazol-2-yl)naphthalene-2-carboxamide]: the “innate immune activation marked by IRF3 translocation into the nucleus” value in data set [1] is “specifically induced innate immune activation”. Moreover, the “IRF3 phosphorylation and IFIT1 expression” value in data set [2] was “specifically induced IRF3 phosphorylation and the expression of IFIT1”. Besides, in data set [3], the “production of pgRNA (RT-qPCR)” value is given as “significantly suppressed”; the “capsid-associated intracellular HBV DNA (RC, DL, SS DNA), Southern blot” value is listed as “markedly decreased the levels of these DNA species”; the “production of cccDNA over time course” value is listed as “markedly suppressed”; the “extracellular HBV DNA (qPCR)” value is on record as “reduction of extracellular HBV DNA”. In addition, in data set [3], the “secreted HBsAg in culture supernatant (ELISA)” value is recorded as “significant reduction in the level of secreted HBsAg”. Further, in data set [4], the “PF-RC DNA in subcellular fractions, Southern blot” value is “accumulation was reduced after 2-3 dpi”; the “cccDNA accumulation, Southern blot” value was “delayed and reduced”.

B1: poly-U/UC PAMP: ~100 nt PAMP motif from the HCV genome comprising 5′ppp and the poly U/UC region, recognized by RIG-I; formulated in liposome (nucleic acid)
chain: GGCCAUCCUGUUUUUUUCCCUUUUUUUUUUUCUUUUUUUUUUUUUUUUUUUUUUUUUUUUUUUUUUCUCCUUUUUUUUUCCUCUUUUUUUCCUUUUCUUUCCUUU
modifications: RNA, 5' {ppp}, backbone and methylation of C not given here; formulated in liposome
notes: ~100 nt PAMP motif from the HCV genome comprising 5′ppp and the poly U/UC region, recognized by RIG-I; formulated in liposome
Consider B1, for which, in data set [1], the “innate immune activation marked by IRF3 translocation into the nucleus” value is listed as “specifically induced innate immune activation”. Further, the “IRF3 phosphorylation and IFIT1 expression” value in data set [2] is “specifically induced IRF3 phosphorylation and the expression of IFIT1”. Besides, in data set [3], the “production of pgRNA (RT-qPCR)” value was “significantly suppressed”; the “capsid-associated intracellular HBV DNA (RC, DL, SS DNA), Southern blot” value is reported as “markedly decreased the levels of these DNA species”; the “production of cccDNA over time course” value is listed as “markedly suppressed”; the “extracellular HBV DNA (qPCR)” value was “reduction of extracellular HBV DNA”. For the same molecule, the “secreted HBsAg in culture supernatant (ELISA)” value in data set [3] was “significant reduction in the level of secreted HBsAg”. In addition, in data set [4], the “PF-RC DNA in subcellular fractions, Southern blot” value is given as “Nuclear PF-RC DNA levels were reduced” and the “cccDNA accumulation, Southern blot” value is on record as “reduction of cccDNA”.
